Measured values from patent publication US20210228500A1, “CELLULAR RETINOID BINDING PROTEIN ANTAGONISTS AND USES THEREOF” (CASE WESTERN RESRVE UNIVERSITY, priority 2018, published 2021).

How the values were obtained:
CRBP1 [1] = molecular target: T1, CRBP1 (Homo sapiens, UniProt P09455); experiment: Fluorescence binding assay: atROL displacement from holo-CRBP1 (FRET); details: for binding to / interaction with CRBP1: 0-10 μM range
T1 construct: made in house
T1 sequence (P09455 1-135): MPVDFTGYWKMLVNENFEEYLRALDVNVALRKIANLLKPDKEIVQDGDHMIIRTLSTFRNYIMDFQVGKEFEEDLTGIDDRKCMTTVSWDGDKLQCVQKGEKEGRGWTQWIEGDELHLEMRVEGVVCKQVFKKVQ
Procedure: Human apo-CRBP1 was expressed and purified as described by Silvaroli et al. (J Biol Chem. 2016, 15; 291(16)) without any further modification to the established protocol.
To prepare holo-CRBP1, 3 mg of purified apoprotein was incubated for 15 min on ice with 2 molar excess of atROL (Toronto Research Chemicals) in 10 mM Tris-HCl, pH 8.0, 5% glycerol (v/v). The retinoid was delivered in acetonitrile (<1%, v/v). To remove excess of atROL, the protein solution was diluted 10× with 10 mM Tris-HCl, pH 8.0, centrifuged (36 000 g, 20 min, 4° C.) and loaded onto a 5 mL HiTrap Q HP column. Holo-CRBP1 was eluted from the column in conditions described in CRBP1 purification method. The efficiency of formation of holo-CRBP1 was examined by recording UV/vis spectrum of the repurified protein.
The apparent affinity of nonretinoid ligands was evaluated by monitoring changes in the fluorescence of holo-CRBP1. In the atROL bound form, the protein excited at 285 nm emitted fluorescence at 350 and 480 nm due to FRET between the protein scaffold and the retinoid moiety (FIG. 2A). Replacement of atROL in the binding site by tested ligands leads to disruption of FRET and consequently an increase in the fluorescence intensity at 350 nm with concomitant diminishing signal at 480 nm. All fluorescence measurements were performed using a PerkinElmer Life Sciences LS55 spectrofluorometer. The titrations were performed at 25° C. in 67 mM phosphate-buffered saline buffer, pH 7.4, containing 5% glycerol (v/v) by adding an increasing amount of an examined compound delivered in acetonitrile. […] All fluorescence spectra were corrected for the inner filter effect. The Ki values were calculated by fitting intensities of the protein fluorescence at the maximum emission (350 nm) or the intensity of retinoid fluorescence at 480 nm to the saturation single ligand-binding model. The data fitting and calculations of the Ki values were performed using SigmaPlot 11 software package (Systat Software).

CRBP1 [2] = molecular target: T1, CRBP1; details: read-out: affinity for atROL; cited from earlier work
CRBP4 = molecular target: T2, CRBP4 (Homo sapiens, UniProt Q96R05); details: read-out: affinity for atROL; cited from earlier work
T2 construct: thrombin cut site (residual residues after digestion) (C); 6x histidine tag (C, cleaved yes); made in house; host or cells: E. coli BL21 (DE3) (as for CRBP2)
T2 sequence (Q96R05 1-134): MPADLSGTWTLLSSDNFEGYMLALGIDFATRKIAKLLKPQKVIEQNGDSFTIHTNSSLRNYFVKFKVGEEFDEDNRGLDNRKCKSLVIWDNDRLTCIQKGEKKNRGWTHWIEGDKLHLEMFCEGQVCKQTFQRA

[3] = fluorescence atROL-replacing assay

C=C(C)[C@@H]1CCC(C)=C[C@H]1c1c(OC)cc(C)cc1OC [0-1918, 1,3-dimethoxy-5-methyl-2-[(1R,6R)-3-methyl-6-prop-1-en-2-ylcyclohex-2-en-1-yl]benzene]
binding to / interaction with CRBP1 (CRBP1 [1]; [3]): abolished the meaningful binding

C=C(C)[C@@H]1CCC(C)=CC1c1c(O)cc(C)cc1O (stereo partly drawn) [CBDO, 5-methyl-2-[(6R)-3-methyl-6-prop-1-en-2-ylcyclohex-2-en-1-yl]benzene-1,3-diol]
further increase of the Ki value (CRBP1 [1]; fluorescence atROL-replacing assay, relative to abn-CBDO): 6.3 fold

C=C(C)[C@@H]1CCC(C)=C[C@H]1c1c(C)cc(O)cc1O [abn-CBDO, 5-methyl-4-[(1R,6R)-3-methyl-6-prop-1-en-2-ylcyclohex-2-en-1-yl]benzene-1,3-diol]
apparent affinity lowered compared with abn-CBD (CRBP1 [1]; fluorescence atROL-replacing assay, relative to abn-CBD): 4.3 times

CC1=C(/C=C/C(C)=C/C=C/C(C)=C/CO)C(C)(C)CCC1 [atROL, all-trans-retinol]
Ki (CRBP1 [1]; reverse experiment: CRBP1 loaded with abn-CBD titrated with atROL, read-out: Ki value for replacing abn-CBD by vitamin A): ~34 nM
Kd (CRBP1 [2]): < 1 nM
Kd (CRBP4): 200 nM

C=C(C)[C@H]1CC=C(C)CC1 [limonene, reference compound]
binding to / interaction with CRBP1 (CRBP1 [1]; [3]): did not observe limonene interacting
